How the values were obtained:
[1] = molecular target: T1, truncated His-MBP-Tev-KLHDC2 (residues 1-363) (Homo sapiens, UniProt Q9Y2U9); test: KLHDC2 HTRF binding assay; conditions: 1 nM KLHDC2 (residues 1-363), fluorescein-labeled diglycine peptide probe
T1 construct: truncated His -MBP-Tev-KLHDC2 (residues 1-363) purified from E. coli; made in house; host or cells: E. coli
T1 sequence (Q9Y2U9 1-363): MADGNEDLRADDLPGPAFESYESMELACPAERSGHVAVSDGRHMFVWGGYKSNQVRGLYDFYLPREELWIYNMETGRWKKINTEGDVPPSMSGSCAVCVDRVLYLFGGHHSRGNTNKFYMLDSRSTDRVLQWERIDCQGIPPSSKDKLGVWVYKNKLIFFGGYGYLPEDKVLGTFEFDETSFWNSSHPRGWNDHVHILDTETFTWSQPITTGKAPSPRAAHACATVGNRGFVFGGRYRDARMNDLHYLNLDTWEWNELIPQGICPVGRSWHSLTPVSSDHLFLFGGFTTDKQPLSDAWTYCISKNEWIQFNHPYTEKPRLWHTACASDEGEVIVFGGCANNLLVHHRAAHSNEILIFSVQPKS

[2] = molecular target: T1, truncated His-MBP-Tev-KLHDC2 (residues 1-363); test: KLHDC2 FP competition binding assay; conditions: 15 nM KLHDC2 (residues 1-363), 10 nM fluorescein-labeled diglycine peptide probe, read-out: KLHDC2 binding Human FP: average external IC50

IC50 [1]	IC50 [2]	Structure (SMILES)
> 5 µM	> 5 µM	CCOC(=O)Cn1cc(NC(=O)c2ccc(CCCCCCNC(=O)OC(C)(C)C)c(-c3cccnc3)c2)ccc1=O [I-150]
0.5 to 5 µM	0.5 to 5 µM	O=C(O)Cn1cc(NC(=O)c2nccc(-c3cccnc3)n2)ccc1=O [I-85]
> 5 µM	> 5 µM	Cc1ccc(Cl)c(-c2ccc(=O)n(CC(=O)O)c2)c1 [I-342]
> 5 µM	> 5 µM	O=C(Nc1ccc(=O)n([C@H](F)C(=O)O)c1)c1cccc(-c2cccnc2)c1 [I-52]
0.05 to 0.5 µM	0.05 to 0.5 µM	COc1cccc2c(N3CCC[C@H](C(=O)Nc4ccc(Cl)c(CC(=O)O)c4)C3)cncc12 [I-5]
< 0.05 µM	< 0.05 µM	O=C(O)Cn1cc(NC(=O)[C@H]2CCCN(c3cncc4ccccc34)C2)ccc1=O [I-41]
> 5 µM	> 5 µM	Cc1ccc(C(F)(F)F)cc1-c1ccc(=O)n(CC(=O)O)c1 [I-350]
> 5 µM	> 5 µM	O=C(O)Cn1cc(CC(=O)N2CCCCC2)ccc1=O [I-290]
> 5 µM	> 5 µM	CN(C)C(=O)c1ccc(-c2ccc(=O)n(CC(=O)O)c2)cc1 [I-393]
> 5 µM	> 5 µM	O=C(O)Cc1cnn2ccccc12 [I-223]
> 5 µM	> 5 µM	O=C(O)Cn1cc(NC(=O)[C@@H]2CN(c3cccnc3)Cc3ccccc32)ccc1=O [I-34]
> 5 µM	> 5 µM	CCOC(=O)Cn1cc(NC(=O)c2cccc(-c3cnccc3CCCCCCNC(=O)OC(C)(C)C)c2)ccc1=O [I-156]
0.5 to 5 µM	0.5 to 5 µM	COc1cc(-c2ccsc2)ccc1C(=O)Nc1ccc(=O)n(CC(=O)O)c1 [I-143]
> 5 µM	> 5 µM	O=C(O)CC1CN(C(=O)c2cccc(-c3cccnc3)c2)CCO1 (stereo not drawn) [I-90]
> 5 µM	> 5 µM	CN(C)C(=O)c1ccc(-c2ccc(=O)n(CC(=O)O)c2)cc1Cl [I-388]
> 5 µM	> 5 µM	COc1ccc(-c2ccccc2)cc1C(=O)Nc1ccc(=O)n(CC(=O)O)c1 [I-243]
> 5 µM	> 5 µM	O=C(O)CC(C(=O)n1ccc2ccccc21)c1ccc(=O)n(CC(=O)O)c1 (stereo not drawn) [I-184]
< 0.05 µM	< 0.05 µM	O=C(O)Cn1cc(NC(=O)[C@H]2CCCN(c3cncc([N+](=O)[O-])c3)C2)ccc1=O [I-4]
> 5 µM	> 5 µM	COc1cc(-c2ccc(=O)n(CC(=O)O)c2)ccn1 [I-378]
> 5 µM	> 5 µM	Cc1ccc(C)c(-c2cn(CC(=O)O)c(=O)cc2C)c1 [I-330]
> 5 µM	> 5 µM	CCc1cccc(-c2ccc(=O)n(CC(=O)O)c2)c1 [I-345]
> 5 µM	> 5 µM	O=C(O)Cn1cc(-c2cccc(N3CCOCC3)c2)ccc1=O [I-322]
> 5 µM	> 5 µM	CCOC(=O)Cn1cc(NC(=O)c2ccc(CCCCCCN)c(-c3cccnc3)c2)ccc1=O [I-147]
< 0.05 µM	0.05 to 0.5 µM	O=C(O)Cn1cc(NC(=O)[C@H]2CCCN(c3cccnc3)C2)ccc1=O [I-91]

IC50 [1]	IC50 [2]	Structure (SMILES)
> 5 µM	> 5 µM	CN(C(=O)c1ccccc1)c1ccc(=O)n(CC(=O)O)c1 [I-286]
> 5 µM	> 5 µM	COc1cc(F)cc(-c2ccc(=O)n(CC(=O)O)c2)c1 [I-396]
0.5 to 5 µM	> 5 µM	COc1c(C(=O)Nc2ccc(=O)n(CC(=O)O)c2)cccc1-c1ccccc1 [I-259]
0.5 to 5 µM	> 5 µM	O=C(O)Cn1cc(NC(=O)c2ccc3ccccc3c2)ccc1=O [I-211]
< 0.05 µM	0.5 to 5 µM	COc1cncc(-c2cccc(C(=O)Nc3ccc(=O)n(CC(=O)O)c3)c2)c1 [I-47]
> 5 µM	> 5 µM	CSCCC(NC(=O)c1ccccc1C)C(=O)Nc1ccc(=O)n(CC(=O)O)c1 (stereo not drawn) [I-208]
0.5 to 5 µM	> 5 µM	O=C(O)Cn1cc(N2CCc3cc(-c4cccnc4)ccc3C2=O)ccc1=O [I-68]
> 5 µM	> 5 µM	O=C(O)Cn1cc(-c2cccc(N3CCCCC3)c2)ccc1=O [I-314]
> 5 µM	> 5 µM	CS(=O)(=O)c1cccc(-c2cccc(C(=O)Nc3ccc(=O)n(CC(=O)O)c3)c2)c1 [I-194]
> 5 µM	> 5 µM	CN(CC1(C(=O)Nc2ccc(=O)n(CC(=O)O)c2)CC1)c1cccnc1 [I-43]
> 5 µM	> 5 µM	Cc1cccc(Cl)c1C(=O)Nc1ccc(=O)n(CC(=O)O)c1 [I-319]
> 5 µM	> 5 µM	Cc1ccc(F)c(-c2ccc(=O)n(CC(=O)O)c2)c1 [I-343]
0.05 to 0.5 µM	0.5 to 5 µM	O=C(O)Cn1cc(NC(=O)[C@H]2CCCN(c3cccnc3)C2)c(Cl)cc1=O [I-83]
0.5 to 5 µM	> 5 µM	O=C(O)Cn1cc(NC(=O)[C@H]2CCN(c3cccnc3)C2)ccc1=O [I-48]
> 5 µM	> 5 µM	COc1ncc(-c2ccc(=O)n(CC(=O)O)c2)cn1 [I-362]
0.05 to 0.5 µM	0.5 to 5 µM	O=C(O)Cn1cc(NC(=O)c2cc(-c3cccnc3)ccn2)ccc1=O [I-142]
> 5 µM	> 5 µM	O=C(O)Cn1cc(NC(=O)COc2ccc(F)cc2)ccc1=O [I-283]
0.05 to 0.5 µM	0.5 to 5 µM	Cc1cc(=O)n(CC(=O)O)cc1NC(=O)c1cccc(-c2cccnc2)c1 [I-96]
0.5 to 5 µM	> 5 µM	COc1cc(-c2ccc(C)cc2)ccc1C(=O)Nc1ccc(=O)n(CC(=O)O)c1 [I-135]
> 5 µM	> 5 µM	O=C(O)Cn1cc(-c2ccc3cn[nH]c3c2)ccc1=O [I-386]
> 5 µM	> 5 µM	CCCc1cccc(-c2ccc(=O)n(CC(=O)O)c2)c1 [I-358]
0.5 to 5 µM	> 5 µM	CC(C)c1cc(=O)n(CC(=O)O)cc1NC(=O)[C@H]1CCCN(c2cccnc2)C1 [I-46]
0.5 to 5 µM	> 5 µM	O=C(O)Cn1cc(NC(=O)c2ccc(-c3ccccc3)c(Cl)c2)ccc1=O [I-185]
< 0.05 µM	0.5 to 5 µM	O=C(O)Cn1cc(NC(=O)c2cccc(-c3cncc4ccccc34)c2)ccc1=O [I-131]

IC50 [1]	IC50 [2]	Structure (SMILES)
> 5 µM	> 5 µM	O=C(O)Cn1cc(Nc2ncnc3c(-c4cccnc4)cccc23)ccc1=O [I-87]
0.05 to 0.5 µM	0.5 to 5 µM	CC(C)(C)OC(=O)NCCCCCCn1ccc2c(C(=O)Nc3ccc(=O)n(CC(=O)O)c3)cccc21 [I-160]
> 5 µM	> 5 µM	Cc1ccc2c(c1C)NC(C(=O)O)C1CC=CC21 (stereo not drawn) [I-426]
< 0.05 µM	0.05 to 0.5 µM	CNc1cncc(N2CCC[C@H](C(=O)Nc3ccc(=O)n(CC(=O)O)c3)C2)c1 [I-40]
> 5 µM	> 5 µM	O=C(O)Cn1cc(-c2ccccc2Cl)ccc1=O [I-379]
0.05 to 0.5 µM	0.5 to 5 µM	COc1cncc(N2CCC[C@H](C(=O)Nc3ccc(Cl)c(CC(=O)O)c3)C2)c1 [I-20]
> 5 µM	> 5 µM	N#Cc1ccc(OCC(=O)Nc2ccc(=O)n(CC(=O)O)c2)cc1 [I-270]
> 5 µM	> 5 µM	N#Cc1cccc(-c2ccc(=O)n(CC(=O)O)c2)c1 [I-324]
> 5 µM	> 5 µM	O=C(O)Cc1cccc(NC(=O)CCc2cccc(OC3CCCC3)c2)c1 [I-351]
0.05 to 0.5 µM	0.05 to 0.5 µM	CC(C)(C)OC(=O)NCCCCCCc1ccc(C(=O)Nc2ccc(=O)n(CC(=O)O)c2)cc1-c1cccnc1 [I-146]
0.5 to 5 µM	> 5 µM	O=C(O)Cn1cc(NC(=O)c2cccc(-c3cccnc3)c2Cl)ccc1=O [I-42]
> 5 µM	> 5 µM	Cc1onc(-c2ccc(F)cc2)c1C(=O)Nc1ccc(=O)n(CC(=O)O)c1 [I-254]
0.5 to 5 µM	> 5 µM	O=C(O)Cn1cc(NC(=O)[C@@H]2CCCN(c3cccnc3)C2)c(C2CC2)cc1=O [I-58]
> 5 µM	> 5 µM	O=C(O)Cn1cc(-c2ccccc2C(F)(F)F)ccc1=O [I-369]
> 5 µM	> 5 µM	COc1ncc(-c2ccc(=O)n(CC(=O)O)c2)cc1F [I-365]
> 5 µM	> 5 µM	O=C(O)Cn1cc(NC(=O)c2cccc(-c3ccncc3)c2)ccc1=O [I-280]
0.5 to 5 µM	> 5 µM	C[C@H](C(=O)O)n1cc(NC(=O)c2cccc(-c3cccnc3)c2)ccc1=O [I-72]
> 5 µM	> 5 µM	O=C(O)Cn1cc(NC(=O)c2ccc(-c3ccccc3Cl)cc2)ccc1=O [I-197]
> 5 µM	> 5 µM	NCCCCCCn1ccc2c(C(=O)Nc3ccc(=O)n(CC(=O)O)c3)cccc21 [I-137]
> 5 µM	> 5 µM	Nc1ccc(-c2ccc(=O)n(CC(=O)O)c2)cn1 [I-367]
> 5 µM	> 5 µM	O=C(O)Cn1cc(CC(=O)N2CCc3ccccc32)ccc1=O [I-277]
0.5 to 5 µM	> 5 µM	O=C(O)Cn1cc(NC(=O)[C@@H]2CCCN(c3cccnc3)CC2)ccc1=O [I-29]
> 5 µM	> 5 µM	O=C(O)Cn1cc(NC(=O)[C@@H]2CCN(c3cccnc3)C2)ccc1=O [I-49]
> 5 µM	> 5 µM	Cc1ccc(CC(C)C)cc1-c1ccc(=O)n(CC(=O)O)c1 [I-334]

From patent US20250214969A1, “PROTEIN DEGRADERS AND USES THEREOF” (Kymera Therapeutics, Inc., priority 2022, published 2025)
